“And” between values parts separate entries of the source, which are not always exact repeats. Equal entries are not always repeated. Blank lines part the entries; values can stand above or below the compound they belong to. Non-standard residues stand in square brackets, D forms with d. Residues, ends and D or L forms follow the SMILES beside them. No end group written: not given here. PEG2000 = polyethylene glycol 2000 attached at the N-terminus
Legend:
[1] = system: Tsp-1 expression; conditions: previously shown; cited from earlier work
[2] = system: primary ovarian cancer cells; experiment: Intraperitoneal metastatic ovarian cancer model, bioluminescence; assay type: in vivo, CB-17 SCID mice; conditions: 2 mg/kg QOD from day 17
Procedure: For metastatic ovarian cancer cell injections, 5×10^6 viable primary ovarian cancer cells were injected into CB-17 SCID mice intraperitoneally in a volume of 0.1 ml. Tumor growth was monitored by live animal bioluminescence imaging (Xenogen) once per week. For in vivo determination of the metastatic burden, mice were anaesthetized and injected intraperitoneally with 75 mg/kg of D-luciferin (100 uL of 30 mg/mL in PBS). Metastatic growth was monitored over time using bioluminescence imaging performed with mice in a supine position 5 min after D-luciferin injection with a Xenogen IVIS system coupled to Living Image acquisition and analysis software (Xenogen). For BLI plots, photon flux was calculated for each mouse by using the same circular region of interest encompassing the abdomen of the mouse.
To determine whether DWLPK (SEQ ID NO: 4) could inhibit or regress existing ovarian metastases 5×10^6 primary ovarian cancer cells were injected intraperitoneally into SCID mice. After 17 days treatment was initiated with DWLPK (SEQ ID NO: 4) at a dose of 40 mg/kg QD, cisplatin at a dose of 2 mg/kg QOD, a combination of DWLPK (SEQ ID NO: 4) and cisplatin at the same doses, or PBS (control). It was observed that DWLPK (SEQ ID NO: 4) treatment completely regressed the metastases in 11/12 after 30 days and the regressed the metastases in the remaining mice by 99% (FIG. 20).

[3] = mouse, in vivo; cited from earlier work
[4] = system: Tsp-1 and p53 expression in prostate fibroblasts; experiment: Tsp-1 and p53 expression in prostate fibroblasts treated with peptides, western blot; assay type: cell-based; conditions: western blot; 10 ug/mL, 16 hours
Procedure: Methods of assaying the effects of a polypeptide described herein on Tsp-1 and p53 expression are described herein. Briefly, a control Psap alongside a test polypeptide, is applied to a cell culture of prostate fibroblasts. The conditioned media from PC3M-LN4 (LN4) and PC3 cells are used as controls, with PC3 as positive/stimulating control and LN4 as negative/inhibiting controls. After a period of incubation (˜16 h), the cells are harvested, rinsed, and lysed. The lysates are analyzed for the level of Tsp-1 and p53 expression by western blot analyses, with β-actin as the internal lysate protein loading control.
These peptides were used to treat prostate and lung fibroblasts in vitro at a concentration of 10 ug/mL for 16 hours in ATCC-specified media supplemented with 0.1% FBS. Tsp-1 and p53 expression was analyzed by western blot as described previously (Kang, Y., et al., (2003) Cancer Cell 3:537-549.)

[5] = system: Tsp-1 and p53 expression in lungs; experiment: Tumor-free mice given PC3M-LN4 conditioned media plus peptide; Tsp-1/p53 in tissue by western blot; assay type: in vivo, C57Bl6 mice; conditions: PC3M-LN4 CM plus 30 mg/kg pegylated peptide daily, 9 days; compared with PC3 conditioned media
Procedure: For tumor-free analysis C57Bl6 mice were treated with 200 uL of PC3M-LN4 media alone or in combination with peptides described above at dose of 30 mg/kg/day for 5 days. After treatment the animals were sacrificed and the lungs were harvested, lysed and analyzed for Tsp-1 and p53 protein levels as described previously (Kang et al).
It was sought to determine whether there was a smaller domain within saposin A that contained the p53/Tsp-1 stimulating activity. […] C57Bl6 mice (5-6 wks old) were injected daily with 300 uL of serum free DMEM, conditioned media (CM) from non-metastatic PC3 cells, CM from metastatic PC3M-LN4 cells and PC3M-LN4 CM plus 30 mg/kg of the pegylated 6 amino acid polypeptide (PEG2000-CDWLPK (SEQ ID NO: 46)) or 30 mg/kg of the pegylated 18 amino acid polypeptide (PEG2000-[…] (SEQ ID NO: 47)). After 9 days the mice were euthanized and the lungs and livers harvested and either fixed in formalin or lysed for Western blot analysis.
Finally, the effect of substituting D-amino acids at different residues of the 4-amino acid peptide was analyzed. By Western blot analysis it was observed that substituting the first and third or second and fourth residues, in combination, had no effect on the Tsp-1 stimulating activity in vitro. These peptides were then tested in the tumor-free animal model described above. The normal 4-amino acid peptide and the D-amino acid substituted peptides were injected in combination with conditioned media from PC3M-LN4 cells in adult C57Bl6 mice for 4 days at a dose of 10 or 30 mg/kg/day via i.p. injection. Mice were sacrificed 24 hours after the treatment on day 4. The lungs of these mice were harvested and analyzed the Tsp-1 expression by Western blot analysis. […]
Methods: 18 C57Bl6 mice were injected with Ac-dWlP-amide (SEQ ID NO: 132) at a dose of 30 mg/kg in a volume of 100 μL via intraperitoneal (i.p) injections in serum starved conditioned media from PC3M-LN4 prostate cancer cells. […] The relative intensity of the Tsp-1 (normalized to β-Actin) bands were determined using a Bio-Rad Chemi-Doc XRS system.

[6] = Peptide stability in mouse plasma, LC/MS; assay type: in vitro ADME, Swiss-Webster mice; conditions: for Concentration: 800 ng/mL, 37° C.; for Percent of Nominal: nominal 800 ng/mL
Procedure: (§1) human plasma (Lot #BCE012312PM1, K3 EDTA) was obtained from BioChemed Services (Winchester, VA) and was stored at −80° C. Young adult male Swiss-Webster mice were obtained from Taconic Farms, and were anesthetized with carbon dioxide, and exsanguinated by cardiac puncture. Blood was collected in to tubes containing K2 EDTA and cooled in ice. Plasma was prepared by centrifugation for 10 min at 3000 g and 4° C. Mouse plasma and blood was used on the day of harvest.
(§2) Quenched matrix (human and mouse plasma) samples were prepared from one volume of plasma precipitated with three volumes of 9:1 acetonitrile:water at 4° C. and centrifuged for 10 min at 3000 g and 4° C., and the supernatant was used to prepare standard curve samples. A stock solution of 20 mg/mL Ac-DWLP-amide (SEQ ID NO: 133, Ac=acetyl group, amide=amide group) and 20 mg/mL Ac-dWlP-amide (SEQ ID NO: 132, DWLP with D-amino acids D and L indicated by lower case) was prepared in distilled water. Each peptide stock (20 mg/mL) was used to prepare a dilution in phosphate buffered saline (PBS) at 1 mg/mL and those samples were further diluted in PBS to prepare 100 and 50 μg/mL solutions. The 100 and 50 μg/mL solutions were added to the quenched matrix supernatant at concentrations equivalent to 0, 300, 1000, 3000, and 10000 ng/mL pre-quench plasma concentrations to prepare standard curve samples. Triplicate aliquots (100 μL) of each standard curve sample were diluted in 100 μL water prior to analysis by LC/MS.
(§3) The two peptides were formulated in PBS (40 μg/mL), and incubated with human and mouse plasma at 37° C. in polypropylene tubes at a concentration of 800 ng/mL in duplicate. Incubation aliquots (100 μL) were removed at 0, 15, 30, and 60 min and immediately quenched by the addition of 300 μL 9:1 acetonitrile:water, vortexed and centrifuged for 10 min at 3000 g and 4° C. Then 100 μL of each supernatant was diluted with 100 μL PBS prior to analysis by LC/MS.
(§4) Processed standard curve and incubation samples were analyzed using the method described in Table 1. The concentration of peptide in plasma was determined by extrapolation from the standard curve.

[7] = Peptide stability in human plasma, LC/MS; assay type: in vitro ADME; conditions: for stability in human plasma / Concentration: 800 ng/mL, 37° C.; for stability in human plasma: 1 h; for Concentration / Percent of Nominal: human plasma; for Percent of Nominal: nominal 800 ng/mL
Procedure: as §1, §2, §3, §4

[8] = Peptide in plasma prepared from spiked mouse blood (partition into red blood cells), LC/MS; assay type: in vitro ADME, Swiss-Webster mice; conditions: for Concentration in Mouse Plasma Prepared From Mouse Blood Incubated with Each Peptide: 800 ng/mL in chilled mouse blood, plasma prepared after five minutes; for partition between plasma fraction and red blood cells: mouse blood, 800 ng/mL
Procedure: as §1
The two peptides were formulated as for plasma and introduced into mouse blood chilled in an ice bath at a concentration of 800 ng/mL in duplicate. Five minutes after adding to blood, plasma was prepared and duplicate aliquots were extracted (as above) and analyzed by LC/MS.
as §4

Compound: LEKTCDWLPKPNMSASCKEI
stimulating Tsp-1 expression in vitro and in vivo [1]: capable of stimulating Tsp-1 expression in vitro and in vivo

Compound: N.N.[Cl][Pt][Cl] [cisplatin, reference compound]
course of tumors under cisplatin treatment [2]: developed resistance to cisplatin treatment after 20 days and began growing again

Compound: CO[C@@H]1[C@H](OC(=O)NC(=O)CCl)CC[C@]2(CO2)[C@H]1[C@@]1(C)O[C@@H]1CC=C(C)C [TNP-470]
development of obesity in mice [3]: prevent diet-induced and genetic obesity
vascularity in the adipose tissue [3]: reduced vascularity in the adipose tissue

Compound: CDWLPKPNMSASC (also: cyclized, mode not given here) [13-amino acid cyclized peptide spanning residues 35-47 of saposin A]
stimulation of the expression of p53 and Tsp-1 in prostate fibroblasts [4]: able to stimulate the expression of p53 and Tsp-1
stimulating Tsp-1 expression in vitro and in vivo [1]: capable of stimulating Tsp-1 expression in vitro and in vivo

Compound: PEG2000-EKTCDWLPKPNMSASCKE (cysteine pairing not given here)
stimulating the expression of Tsp-1 in the lung and liver [5]: as, or more, effective than PC3 conditioned media

Concentration ([6]; 0 min): 869 ng/mL and 955 ng/mL
Percent of Nominal ([6]; 0 min): 108.6% and 119.4%
Concentration ([6]; 15 min): 669 ng/mL and 605 ng/mL
Percent of Nominal ([6]; 15 min): 83.6% and 75.6%
Concentration ([6]; 30 min): 428 ng/mL and 400 ng/mL
Percent of Nominal ([6]; 30 min): 53.5% and 50.0%
Concentration ([6]; 60 min): 398 ng/mL and 463 ng/mL
Percent of Nominal ([6]; 60 min): 49.8% and 57.9%
stability in human plasma [7]: good stability
Concentration ([7]; 0 min): 649 ng/mL and 784 ng/mL
Percent of Nominal ([7]; 0 min): 81.1% and 98.0%
Concentration ([7]; 15 min): 760 ng/mL and 817 ng/mL
Percent of Nominal ([7]; 15 min): 95.0% and 102.1%
Concentration ([7]; 30 min): 538 ng/mL and 607 ng/mL
Percent of Nominal ([7]; 30 min): 67.3% and 75.9%
Concentration ([7]; 60 min): 634 ng/mL and 616 ng/mL
Percent of Nominal ([7]; 60 min): 79.3% and 77.0%
Compound: CC(=O)N[C@@H](CC(=O)O)C(=O)N[C@@H](Cc1c[nH]c2ccccc12)C(=O)N[C@@H](CC(C)C)C(=O)N1CCC[C@H]1C(N)=O [Ac-DWLP-amide] (Ac-DWLP-NH2)
Concentration in Mouse Plasma Prepared From Mouse Blood Incubated with Each Peptide [8]: 1580 ng/mL and 1510 ng/mL and 1530 ng/mL and 1610 ng/mL
partition between plasma fraction and red blood cells [8]: remain primarily in the plasma fraction and do not partition into red blood cells

Concentration ([6]; 0 min): 858 ng/mL and 859 ng/mL
Percent of Nominal ([6]; 0 min): 107.3% and 107.4%
Concentration ([6]; 15 min): 520 ng/mL and 462 ng/mL
Percent of Nominal ([6]; 15 min): 65.0% and 57.8%
Concentration ([6]; 30 min): 541 ng/mL and 496 ng/mL
Percent of Nominal ([6]; 30 min): 67.6% and 62.0%
Concentration ([6]; 60 min): 446 ng/mL and 469 ng/mL
Percent of Nominal ([6]; 60 min): 55.8% and 58.6%
stability in human plasma [7]: stable
Concentration ([7]; 0 min): 1050 ng/mL and 779 ng/mL
Percent of Nominal ([7]; 0 min): 131.3% and 97.4%
Concentration ([7]; 15 min): 941 ng/mL and 875 ng/mL
Percent of Nominal ([7]; 15 min): 117.6% and 109.4%
Concentration ([7]; 30 min): 863 ng/mL and 818 ng/mL
Percent of Nominal ([7]; 30 min): 107.9% and 102.3%
Concentration ([7]; 60 min): 1100 ng/mL and 901 ng/mL
Percent of Nominal ([7]; 60 min): 137.5% and 112.6%
Compound: CC(=O)N[C@H](CC(=O)O)C(=O)N[C@@H](Cc1c[nH]c2ccccc12)C(=O)N[C@H](CC(C)C)C(=O)N1CCC[C@H]1C(N)=O [Ac-dWlP-amide] (Ac-[dD]W[dL]P-NH2)
Concentration in Mouse Plasma Prepared From Mouse Blood Incubated with Each Peptide [8]: 1420 ng/mL and 1380 ng/mL and 1060 ng/mL and 1010 ng/mL
partition between plasma fraction and red blood cells [8]: remain primarily in the plasma fraction and do not partition into red blood cells

Compound: PEG2000-CDWLPK
stimulating the expression of Tsp-1 in the lung and liver [5]: as, or more, effective than PC3 conditioned media

— patent US12285459B2, “Saposin-A derived peptides and uses thereof” (CHILDREN'S MEDICAL CENTER CORPORATION, priority 2011, dated 2025)
